# In patent US20080194530A1, “Chemical Compounds” (Phytopharm PLC, priority 2004, published 2008):
# Legend:
# [1] = Desolvation / dehydration of crystalline forms on drying or heating; type: physicochemical; details: for temperature of heating/drying at which the form is converted to non-solvated non-hydrated form B: desolvation or dehydration to form B
# [2] = Solid-state stability of crystalline forms on exposure to humidity; type: physicochemical
structure (smiles),measurement,setting,value
"CC1CCC2(OC1)O[C@H]1CC3C4CC[C@@H]5C[C@@H](O)CC[C@]5(C)C4CC[C@]3(C)C1[C@@H]2C (stereo partly drawn) [form D, sarsasapogenin]",solvate stoichiometry on filtration and drying,[1],variable stoichiometry
"C[C@H]1CC[C@@]2(OC1)O[C@H]1C[C@H]3[C@@H]4CC[C@@H]5C[C@@H](O)CC[C@]5(C)[C@H]4CC[C@]3(C)[C@H]1[C@@H]2C [form A, sarsasapogenin]",stability with respect to further drying,[1]; after filtration and initial drying,reasonable stability
same,temperature of heating/drying at which the form is converted to non-solvated non-hydrated form B,[1]; listed as hemi acetone solvate,80-100 °C
same,form change on exposure to humidity,[2]; humidity of 50% or greater,led to the formation of form C
"C[C@H]1CC[C@@]2(OC1)O[C@H]1C[C@H]3[C@@H]4CC[C@@H]5C[C@@H](O)CC[C@]5(C)[C@H]4CC[C@]3(C)[C@H]1[C@@H]2C [form C, sarsasapogenin]",temperature of heating/drying at which the form is converted to non-solvated non-hydrated form B,[1],40-60 °C
"C[C@H]1CC[C@@]2(OC1)O[C@H]1C[C@H]3[C@@H]4CC[C@@H]5C[C@@H](O)CC[C@]5(C)[C@H]4CC[C@]3(C)[C@H]1[C@@H]2C [form H, sarsasapogenin]",form change on storage,[2]; 40° C. and 75% relative humidity for 18 days,furnish form I
